Measured values as given in US20240002405A1, “ANTIMICROBIAL COMPOUNDS, SYNTHESIS METHODS, AND USES THEREOF” (Ankh Life Sciences Limited, priority 2022, published 2024).
≈ marks a conversion by molar mass, not a printed value. Where two headings read alike, the source gives them in different places.

How the values were obtained:
[1] = tested on: gram positive and negative bacteria; assay: Antibacterial testing against gram positive and negative bacteria; assay type: cell-based
Experimental: In addition to the harmaline dimers compounds, other bicyclic indole compounds (203, 233, 476/6 and 504/6,) were also tested against gram positive and negative bacteria. Particularly, the indole ethyl urea molecules 203, 233 and the tryptamide dimer molecules 476/6, 504/6, as shown below, were tested.

[2] = tested on: S. aureus (ATCC 29213); assay: Broth microdilution MIC assay, S. aureus; details: for MIC: Staphylococcus aureus
Experimental: (§2) The concentration of compound required to visibly stop the growth of bacteria is known as minimum inhibitory concentration (MIC). Different concentrations of the compounds are tested for the exact same number of bacteria, and the growth is monitored with time.
(§3) Bacterial strains were purchased from the American Type Culture Collection (ATCC) for the studies.
(§4) The MIC assay procedure follows the guidelines set by the Clinical Laboratory Sciences Institute (CLSI).
(§5) To do this, bacteria were transferred from pure agar culture, aseptically transferred in 5 mL of Cation-Adjusted Mueller-Hinton Broth (CAMHB). The broth was incubated overnight at 35° C. to stationary phase to achieve a turbidity suspension. A spectrophotometer (SpectraMax ID5) was used to measure the turbidity (optical density—OD at 625 nm). The inoculum was prepared by adjusting the turbidity of overnight culture to 0.5 McFarland, which is equal to the defined number of bacteria 1×10^8 CFU/ml.
(§6) (b) Compound Dilution: All compounds used in the study were dissolved in sterile ultra-pure DMSO (VWR International, PA, USA) and maintained at −80° C. Stock solution of the compound was freshly prepared the day of use or is prepared from a frozen stock solution stored at −80° C. […] The compound solution was prepared at a desired concentration in DMSO, and 1/10 dilution was performed in a sterile CAMHB medium. This 10-fold dilution of stock solution was used for a 2-fold serial dilution in a 96-well plate to observe an inhibitory effect of the compound on bacterial growth. 100 μL of diluted drug solution was transferred to a first column of the 96-well plate. 50 μL of sterile CAMHB was transferred to each well from well 2 to well 12. Next, 50 μL was removed from well 1 and added to well 2. The contents from well 2 were mixed by pipetting up and down. Next, 50 µL were removed from well 2 and added to well 3. This process was continued till well 11 is reached. 50 μL was discarded from the well 11. Each compound concentration was tested in triplicate.
(§7) (c) Inoculation of 96-well plate: The same number of bacteria (1×10^5 CFU/mL) were prepared after 150-fold dilution of 0.5 McFarland inoculum and used to add in the wells of different drug concentrations. 50 μL of working inoculum was carefully added to each well, except the sterility well 12. Mixing is performed by gently flushing the inoculum in and out of the pipette tip four or five times, avoiding splashing and bubble formation.
(§8) (d) Incubation: Plates were incubated at 35° C. for 24 hours without shaking or agitation.
(§9) (e) Determination of MIC: After 18-24 hours of incubation, the plates were read for MIC. SpectraMax iD5 microplate reader was used to measure turbidity at different time points. Turbidity (OD) increases as the bacteria grow over time.

[3] = tested on: E. coli (ATCC 25922); assay: Broth microdilution MIC assay, E. coli; details: E. coli
Experimental: as §2, §3, §4, §5, §6, §7, §8, §9

[4] = tested on: Candida albicans (ATCC 18804); assay: Antifungal broth microdilution MIC assay; assay type: cell-based; details: Candida albicans, ATCC18804, C. albicans, read-out: MIC (antifungal growth inhibition)
Experimental: Synthesized compounds were tested for antifungal activity towards the fungus strain, Candida albicans. […] Different concentrations of the compounds were tested for the exact same number of fungi, and the growth is monitored with time. MIC was determined by using the broth microdilution assay. Fungus strain, C. albicans was purchased from ATCC (ID: 18804) for the studies. […] This solution was used to make a working solution by preparing a 1:50 dilution, followed by a 1:20 dilution, with RPMI 1640 medium to obtain 2× test inoculum. The 2× inoculum is diluted 1:1 to achieve the final inoculum size (0.5×10^3 to 2.5×10^3 cells per mL). RPMI 1640 medium was used with L-glutamine and phenol red as a pH indicator but without bicarbonate and a glucose concentration of 0.2%. […] All plates were then read visually under normal laboratory lighting using a mirror viewer. Wells were scored for the growth compared to that of the drug free control well. Plates were read at 530 nm with subtraction of the blank from the reading of each well. Turbidity (OD) increases as the fungus grows over time.

[5] = tested on: MRSA (ATCC 43300); assay: Minimum bactericidal concentration (MBC) assay, MRSA; assay type: cell-based; details: Staphylococcus aureus, MRSA
Experimental: (§1) (f) Determination of MBC: MBC was determined by sampling all the macroscopically clear wells. Before sampling, the wells were gently mixed by flushing them with a pipette, and a 5 μL was removed and placed on an agar plate suitable for the growth of the microbe being tested. The agar plate was divided into three parts to test three trials of a single concentration. The sample was allowed to be absorbed into the agar for ˜30 minutes. The plates were then incubated for 24 hours at 37° C. After incubation, the plates were examined to determine the compound concentration at which 99.9% killing was achieved.

[6] = tested on: S. aureus (ATCC 29213); assay: Minimum bactericidal concentration (MBC) assay, S. aureus; assay type: cell-based; details: Staphylococcus aureus, ATCC29213, 24 h; S. aureus; read-out: MBC (kills bacteria)
Experimental: as §1

[7] = tested on: MRSA: S. aureus resistant to methicillin and oxacillin (ATCC 43300); assay: Broth microdilution MIC assay, MRSA; details: Staphylococcus aureus, ATCC43300|MRSA, 24 h, read-out: MIC (bacterial growth inhibition)
Experimental: as §2, §3, §4, §5, §6, §7, §8, §9

[8] = ATCC29213, read-out: MIC (bacterial growth inhibition), S. aureus, time not given

COc1ccc2c(CCNC(=O)CCCC(=O)NCCc3c[nH]c4cc(OC)ccc34)c[nH]c2c1 [476/6]
bacteriostatic/bactericidal activity [1]: no bacteriostatic/bactericidal activity observed

COc1ccc2c(CCNC(=O)CC(C)(C)CC(=O)NCCc3c[nH]c4cc(OC)ccc34)c[nH]c2c1 [504/6]
bacteriostatic/bactericidal activity [1]: no bacteriostatic/bactericidal activity observed

NC(=O)NCCc1c[nH]c2ccccc12 [Compound 203]
bacteriostatic/bactericidal activity [1]: no bacteriostatic/bactericidal activity observed

COc1ccc2[nH]cc(CCNC(N)=O)c2c1 [Compound 233]
bacteriostatic/bactericidal activity [1]: no bacteriostatic/bactericidal activity observed

COc1ccc2c3c([nH]c2c1)C(/C=C/c1ccccc1N)=NCC3 [GK317]
MIC [2, 8]: 100 µg/mL (≈ 315 µM) | MIC (bacterial growth inhibition) [3]: didn't show any activity

COc1ccc2c3c([nH]c2c1)C(/C=C/c1cc(Cl)ccc1N)=NCC3 [GK350]
MIC [2, 8]: 25 µg/mL (≈ 71.1 µM) | concentration showing ~50% growth inhibition [3]: 1.5 µg/mL

COc1ccc2c3c([nH]c2c1)C(/C=C/c1cc(C(=O)O)ccc1N)=NCC3 [GK360]
MIC [2, 8]: 12.5 µg/mL (≈ 34.6 µM) | MIC ([4]; after 24 hours of incubation): 50 µg/mL (≈ 138 µM) | concentration showing ~50% growth inhibition [3]: 0.78 µg/mL

COc1ccc2c3c([nH]c2c1)C(/C=C/c1cc(Br)ccc1N)=NCC3 [GK395]
MIC [2, 8]: 25 µg/mL (≈ 63.1 µM) | MIC ([4]; after 48 hours of incubation): 50 µg/mL (≈ 126 µM) | concentration showing ~50% growth inhibition [3]: 3.5 µg/mL

COc1ccc2c3c([nH]c2c1)C(CC(CC1=NCCc2c1[nH]c1cc(OC)ccc21)C1CC1)=NCC3 [GK480]
concentration at which activity is shown ([2]; S. aureus): 3.25 µg/mL | concentration at which activity is shown [3]: 50 µg/mL

COc1ccc2c3c([nH]c2c1)C(CC(CC1=NCCc2c1[nH]c1cc(OC)ccc21)c1ccccn1)=NCC3 [GK517.2]
MBC ([5]; read-out: MBC): > 129 µg/mL | MBC ([5]; read-out: MRSA-MBC): > 250 µM | MIC ([2]; ATCC29213, 24 h, read-out: MIC (bacterial growth inhibition), S. aureus, up to 24 hours): 64.7 µg/mL (≈ 125 µM) | MBC [6]: > 129 µg/mL | MIC (bacterial growth inhibition) [3]: no activity was observed | MIC [7]: 64.7 µg/mL (≈ 125 µM)
